Data taken from patent US5948437A, “Pharmaceutical compositions using thiazepine” (Zeneca Limited, priority 1997, dated 1999).
Structures can show the parent of a compound that is named as a salt.

Tests used:
physchem = conditions: water
[1] = compound and its pharmaceutically acceptable salts; cited from earlier work

SMILES: OCCOCCN1CCN(C2=Nc3ccccc3Sc3ccccc32)CC1 [hemifumarate salt, 11-[4-[2-(2-hydroxyethoxy)ethyl]-1-piperazinyl]dibenzo[b,f][1,4]-thiazepine]
- solubility thermodynamic (physchem): 3290 µg/mL

SMILES: OCCOCCN1CCN(C2=Nc3ccccc3Sc3ccccc32)CC1 [11-[4-[2-(2-hydroxyethoxy)ethyl]-1-piperazinyl]-dibenzo[b,f][1,4]thiazepine]
- antidopaminergic activity [1]: exhibit useful antidopaminergic activity
